{"source": "paper PMC11833715", "about": "“Identification of a Cannabinoid Receptor 2 Allosteric Site Using Computational Modeling and Pharmacological Analysis” (ACS Pharmacology & Translational Science, 2025)", "key": {"CB1 receptor [1]": {"system": "CB1 receptor", "set-up": "method as in PMID 22343625", "settings": "cited from earlier work"}, "CB1 receptor [2]": {"system": "CB1 receptor", "set-up": "method as in PMID 22343625", "settings": "CB1, in the presence of orthosteric ligand CP 55,940; cited from earlier work"}, "WT CB2 [3]": {"molecular_target": "T1, WT CB2 (Homo sapiens, UniProt P34972)", "T1 construct": "expressed in transfected cells; host or cells: HEK293", "assay": "pGlo-Sensor-22F cAMP accumulation assay, WT CB2", "format": "cell-based", "settings": "for EC50: agonist dose-response on CB2, vehicle control (no Ec2la), read-out: pEC50/pIC50 values (converted)", "source_text": "Compounds were drawn using ChemDraw."}, "CB2 mutant M157A": {"molecular_target": "CB2 mutant M157A (Homo sapiens, UniProt P34972, M157A)", "sequence (P34972 whole entry M157A)": "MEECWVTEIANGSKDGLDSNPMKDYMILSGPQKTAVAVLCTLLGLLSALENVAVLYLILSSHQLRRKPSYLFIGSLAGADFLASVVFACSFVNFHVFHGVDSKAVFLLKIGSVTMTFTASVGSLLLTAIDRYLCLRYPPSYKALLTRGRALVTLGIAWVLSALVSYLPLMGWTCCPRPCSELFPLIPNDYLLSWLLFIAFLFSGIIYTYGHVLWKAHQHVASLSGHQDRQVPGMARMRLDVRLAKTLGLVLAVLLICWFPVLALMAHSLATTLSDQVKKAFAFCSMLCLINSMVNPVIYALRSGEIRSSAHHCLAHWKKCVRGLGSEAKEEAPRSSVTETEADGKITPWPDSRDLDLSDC", "assay": "cAMP accumulation assay, CB2 mutant M157A", "settings": "in the presence of JWH133", "description": "(§2) Primers were designed for the following mutations: F72^2.42A, L125^3.44A, L126^3.45A, I129^3.48A, L133^3.52A, T153^4.45A, I156^4.48A, M157^4.49A, L160^4.52A, F197^5.46A, and L201^5.50A (Table S3). Polymerase chain reactions (PCR) using the Bio-Rad T100TM Thermal Cycler and Applied Biosystems Veriti 96 Well Thermal Cycler to introduce the desired mutations within 3× HA-CB2 (cDNA).\n(§3) HEK293 (ATCC CRL-1573) adherent cells were passaged using Dulbecco’s Modified Eagle’s Medium (DMEM)-high glucose (Sigma-Aldrich). This DMEM was supplemented with penicillin (100 U/mL), streptomycin (100 μg/mL), and heat inactivated fetal bovine serum (FBS, 10%) (PAN-Biotech). […]\n(§4) After 24 h of incubation, the transfected HEK293 cells were then subject to starvation (2 h) with serum-free DMEM (100 μL/well). […] Bioluminescence was then measured using the CLARIOstar Plus Plate Reader (BMG LabTech, Germany). Prior to injecting the treatment ligands, approximately 5–10 basal readings were performed until stabilization was reached. Bioluminescence was measured for a total of 45 cycles (1 min per cycle, 1 s integration time, without filter, a fixed gain of 3000 and autofocus).\n(§5) Data from signaling experiments were analyzed using GraphPad Prism, version 9.4.1 software (GraphPad Software, Inc.). […]"}, "CB2 mutant I129A": {"molecular_target": "CB2 mutant I129A (Homo sapiens, UniProt P34972, I129A)", "sequence (P34972 whole entry I129A)": "as the sequence (P34972 whole entry M157A) above, with I129A, A157M counted along it", "assay": "cAMP accumulation assay, CB2 mutant I129A", "settings": "in the presence of JWH133", "description": "as §2, §3, §4, §5"}, "CB2 mutant L126A": {"molecular_target": "CB2 mutant L126A (Homo sapiens, UniProt P34972, L126A)", "sequence (P34972 whole entry L126A)": "as the sequence (P34972 whole entry M157A) above, with L126A, A157M counted along it", "assay": "cAMP accumulation assay, CB2 mutant L126A", "settings": "in the presence of JWH133", "description": "as §2, §3, §4, §5"}, "CB2 mutant F197A": {"molecular_target": "CB2 mutant F197A (Homo sapiens, UniProt P34972, F197A)", "sequence (P34972 whole entry F197A)": "as the sequence (P34972 whole entry M157A) above, with A157M, F197A counted along it", "assay": "cAMP accumulation assay, CB2 mutant F197A", "settings": "in the presence of JWH133", "description": "as §2, §3, §4, §5"}, "CB2 mutant L160A": {"molecular_target": "CB2 mutant L160A (Homo sapiens, UniProt P34972, L160A)", "sequence (P34972 whole entry L160A)": "as the sequence (P34972 whole entry M157A) above, with A157M, L160A counted along it", "assay": "cAMP accumulation assay, CB2 mutant L160A", "settings": "in the presence of JWH133", "description": "as §2, §3, §4, §5"}, "CB2 mutant T153A": {"molecular_target": "CB2 mutant T153A (Homo sapiens, UniProt P34972, T153A)", "sequence (P34972 whole entry T153A)": "as the sequence (P34972 whole entry M157A) above, with T153A, A157M counted along it", "assay": "cAMP accumulation assay, CB2 mutant T153A", "settings": "in the presence of JWH133", "description": "as §2, §3, §4, §5"}, "CB2 mutant L125A": {"molecular_target": "CB2 mutant L125A (Homo sapiens, UniProt P34972, L125A)", "sequence (P34972 whole entry L125A)": "as the sequence (P34972 whole entry M157A) above, with L125A, A157M counted along it", "assay": "cAMP accumulation assay, CB2 mutant L125A", "settings": "in the presence of JWH133", "description": "as §2, §3, §4, §5"}, "WT CB2 [4]": {"molecular_target": "T1, WT CB2", "assay": "AlphaLISA SureFire Ultra p-ERK 1/2 assay, WT CB2", "format": "cell-based", "settings": "1 μM JWH133 + 10 μM Ec2la", "experimental": "(§1) Culture media were removed and replaced with allosteric modulator (45 μL/well) prepared in serum-free DMEM and incubated (RT, 30 min). The cells were then stimulated with agonist (5 μL/well) prepared in serum-free DMEM and incubated (RT, 10 min). All subsequent reagents were used from the AlphaLISA SureFire Ultra p-ERK 1/2 (Thr202/Tyr204) Assay Kit (PerkinElmer). The medium was removed, freshly prepared 1× lysis buffer (50 μL/well) was added, and the plate was agitated on a plate shaker (RT, 10 min, 350 rpm). The lysates (10 μL) were transferred to a 384-well OptiPlate (PerkinElmer), and the acceptor mix (5 μL) was added to each well under subdued light. The plate was sealed, covered with foil, and incubated (RT, 1 h). Donor mix (5 μL) was added to each well under subdued light. The plate was sealed, covered with foil, and incubated in the dark (RT, 1 h). The plate was read using CLARIOstar Plus Plate Reader (BMG LabTech, Germany) using standard AlphaLISA settings with an […]."}, "CB2 single mutants": {"system": "CB2 single mutants", "assay": "AlphaLISA SureFire Ultra p-ERK 1/2 assay, CB2 single mutants", "format": "cell-based, human", "settings": "1 μM JWH133 + 10 μM Ec2la", "experimental": "as §1"}, "CB2 double mutants": {"system": "CB2 double mutants", "assay": "AlphaLISA SureFire Ultra p-ERK 1/2 assay, CB2 double mutants", "format": "cell-based, human", "settings": "1 μM JWH133 + 10 μM Ec2la", "experimental": "as §1"}, "CB1": {"system": "CB1", "set-up": "method as in PMID 29990428", "settings": "CB1, Chinese hamster ovary cells; cited from earlier work"}, "CB2 [5]": {"system": "CB2", "set-up": "method as in PMID 29990428", "settings": "CB2, Chinese hamster ovary cells; cited from earlier work"}, "CB2 [6]": {"system": "CB2", "set-up": "method as in PMID 29990428", "settings": "agonists CP 55,940 and 2-AG; cited from earlier work"}, "CB2 mutant F72A": {"molecular_target": "CB2 mutant F72A (Homo sapiens, UniProt P34972, F72A)", "sequence (P34972 whole entry F72A)": "as the sequence (P34972 whole entry M157A) above, with F72A, A157M counted along it", "assay": "cAMP accumulation assay, CB2 mutant F72A", "settings": "in the presence of JWH133", "description": "as §2, §3, §4, §5"}, "CB2 mutant L133A": {"molecular_target": "CB2 mutant L133A (Homo sapiens, UniProt P34972, L133A)", "sequence (P34972 whole entry L133A)": "as the sequence (P34972 whole entry M157A) above, with L133A, A157M counted along it", "assay": "cAMP accumulation assay, CB2 mutant L133A", "settings": "in the presence of JWH133", "description": "as §2, §3, §4, §5"}, "CB2 mutant L201A": {"molecular_target": "CB2 mutant L201A (Homo sapiens, UniProt P34972, L201A)", "sequence (P34972 whole entry L201A)": "as the sequence (P34972 whole entry M157A) above, with A157M, L201A counted along it", "assay": "cAMP accumulation assay, CB2 mutant L201A", "settings": "in the presence of JWH133", "description": "as §2, §3, §4, §5"}}, "note": "“Also recorded” adds a separate entry of the source. Read-outs that look alike come from different tables or passages of the source.", "data": [{"compound": "CCc1c(C(=O)NCCc2ccc(N3CCCCC3)cc2)[nH]c2ccc(Cl)cc12", "note": "[ORG27569]", "values": [{"measurement": "allosteric effect in ERK 1/2 signaling", "setting": "CB1 receptor [1]", "result": "positive allosteric effect"}, {"measurement": "allosteric effect with radioligand binding", "setting": "CB1 receptor [2]", "result": "negative allosteric effect"}]}, {"compound": "C=C(C)[C@@H]1CCC(C)=C[C@H]1c1c(O)cc(CCCCC)cc1O", "note": "[CBD, Cannabidiol]", "values": [{"measurement": "allosteric effect on cAMP signaling", "setting": "WT CB2 [3]", "result": "acts as a NAM"}, {"measurement": "orthosteric activity in cAMP assay", "setting": "WT CB2 [3]", "result": "acting as an agonist"}, {"measurement": "allosteric signal in cAMP assay", "setting": "CB2 mutant M157A", "result": "loss and/or alteration in the allosteric signal"}, {"measurement": "allosteric signal in cAMP assay", "setting": "CB2 mutant I129A", "result": "loss and/or alteration in the allosteric signal"}, {"measurement": "allosteric signal in cAMP assay", "setting": "CB2 mutant L126A", "result": "loss and/or alteration in the allosteric signal"}, {"measurement": "allosteric signal in cAMP assay", "setting": "CB2 mutant F197A", "result": "loss and/or alteration in the allosteric signal"}, {"measurement": "allosteric signal in cAMP assay", "setting": "CB2 mutant L160A", "result": "still demonstrating an allosteric effect"}, {"measurement": "allosteric signal in cAMP assay", "setting": "CB2 mutant T153A", "result": "still demonstrating an allosteric effect"}, {"measurement": "allosteric signal in cAMP assay", "setting": "CB2 mutant L125A", "result": "loss and/or alteration in the allosteric signal"}]}, {"compound": "Cc1c(Br)cn(Cc2ccc(F)cc2)c(=O)c1NC(=O)C1CCCCCC1", "note": "[Ec2la]", "values": [{"measurement": "allosteric effect on cAMP signaling", "setting": "WT CB2 [3]", "result": "possible PAM-antagonistic effect; also recorded: acts as a PAM"}, {"measurement": "allosteric effect on cAMP signaling at nanomolar concentrations", "setting": "WT CB2 [3]", "result": "did not demonstrate an allosteric effect; also recorded: no allosteric effect"}, {"measurement": "allosteric effect on cAMP signaling", "setting": "WT CB2 [3]; WT CB2, in the presence of 2-AG, Ec2la 1 and 10 μM", "result": "negative allosteric effect; also recorded: negative allosteric shift"}, {"measurement": "allosteric effect on cAMP signaling", "setting": "WT CB2 [3]; WT CB2, in the presence of CP 55,940, Ec2la 1 and 10 μM", "result": "slight negative allosteric effect; also recorded: negative allosteric shift"}, {"measurement": "allosteric effect on cAMP signaling", "setting": "WT CB2 [3]; WT CB2, in the presence of JWH133, modulator 0.1, 1, 10 μM", "result": "acts like a NAM"}, {"measurement": "allosteric effect on p-ERK 1/2 signaling", "setting": "WT CB2 [4]", "result": "acts as a NAM"}, {"measurement": "allosteric effect on p-ERK 1/2 signaling", "setting": "CB2 single mutants", "result": "either no effect or an increase in the p-ERK 1/2 signal"}, {"measurement": "allosteric effect on p-ERK 1/2 signaling", "setting": "CB2 double mutants", "result": "either no effect to the allosteric modulator-induced changes on the signal or a slight decrease in the signal"}, {"measurement": "modality in [3H]CP 55,940 binding studies", "setting": "CB1", "result": "PAM"}, {"measurement": "modality in [3H]CP 55,940 binding studies", "setting": "CB2 [5]", "result": "PAM"}, {"measurement": "effect on agonist-stimulated [35S]GTPγS binding", "setting": "CB2 [6]", "result": "greatly enhanced"}, {"measurement": "allosteric signal in cAMP assay", "setting": "CB2 mutant F72A", "result": "loss and/or alteration in allosteric signal"}, {"measurement": "allosteric signal in cAMP assay", "setting": "CB2 mutant M157A", "result": "loss and/or alteration in allosteric signal"}, {"measurement": "allosteric signal in cAMP assay", "setting": "CB2 mutant I129A", "result": "loss and/or alteration in allosteric signal"}, {"measurement": "allosteric signal in cAMP assay", "setting": "CB2 mutant L126A", "result": "loss and/or alteration in allosteric signal"}, {"measurement": "allosteric signal in cAMP assay", "setting": "CB2 mutant F197A", "result": "loss and/or alteration in allosteric signal"}, {"measurement": "allosteric signal in cAMP assay", "setting": "CB2 mutant L160A", "result": "loss and/or alteration in allosteric signal"}, {"measurement": "allosteric signal in cAMP assay", "setting": "CB2 mutant L133A", "result": "loss and/or alteration in allosteric signal"}, {"measurement": "allosteric signal in cAMP assay", "setting": "CB2 mutant T153A", "result": "still demonstrating an allosteric effect"}, {"measurement": "allosteric signal in cAMP assay", "setting": "CB2 mutant L201A", "result": "still demonstrating an allosteric effect"}, {"measurement": "allosteric signal in cAMP assay", "setting": "CB2 mutant L125A", "result": "still demonstrating an allosteric effect"}]}, {"compound": "CCCCC/C=C\\C/C=C\\C/C=C\\C/C=C\\CCCC(=O)OC(CO)CO", "note": "[2-AG, 2-arachidonoylglycerol]", "values": [{"measurement": "EC50", "setting": "WT CB2 [3]; Figure S2", "result": 48.3, "unit": "nM"}, {"measurement": "EC50", "setting": "WT CB2 [3]; Figure S3", "result": 202, "unit": "nM"}]}]}
